Reference: patent publication US20120045543A1, “SHELF-LIFE EXTENSION OF SOUR DOUGH BAKED GOODS” (ERNST BÖCKER GMBH & CO. KG, priority 2009, published 2012)

How the values were obtained:
[1] = tested on: mold; assay: storage study of bread, mold-free time; details: bread with 0.4% propionic acid added
[2] = tested on: P. roqueforti; assay: challenge experiment on inoculated bread slices; format: cell-based; details: based on initial flour weight
Text: The inoculated bread slices, already after 2-4 days, had mycelia of P. roqueforti. In order to inhibit this mold fungus growth, a concentration of greater than 0.4% w/w propionic acid (based on the initial flour weight) was required.

[3] = tested on: A. niger; assay: challenge experiment, mycelial growth on bread; format: cell-based
[4] = loss of propionic acid during baking; format: physicochemical; details: during baking and up to 24 h thereafter
Method: Using the method known to those skilled in the art, the loss of propionic acid was determined in order to find out how much propionic acid is present in the various intermediates (dough versus baked product). […] This may be explained by the fact that at the end of the baking time the bread crumb has a temperature of at most 98° C.-106° C. Propionic acid has a boiling point of 141° C. and is therefore retained in the bread crumb during the baking to completion and also after cooling, and therefore can effect the desired protection against mold.

[5] = tested on: mold fungi; details: pH 5.5; depending on the fungal species; cited from earlier work
[6] = tested on: bacteria; details: cited from earlier work
[7] = cited from earlier work

SMILES: CCC(=O)O [propionic acid]
- mold-free time longer compared with propionic acid-free bread [1]: 14 days
- concentration required to inhibit mold fungus growth [2]: greater than 0.4 % w/w
- chemical addition needed to achieve comparable preservation results ([3]; compared with co-fermentation giving 0.2% propionic and 0.2% acetic acid): at least 0.4%
- concentration suppressing growth of A. niger up to the end of the study ([3]; propionic acid alone, breads, challenge experiment): 0.3%
- concentration of propionic acid during baking [4]: remained roughly constant
- concentration inhibiting growth of mold fungi [5]: 0.0125-1.25%
- concentration necessary for inhibition of bacteria [6]: 1.6-6%
- toxicity on oral intake [7]: not acutely toxic
